The source of these data is patent US11976057B2, “MrgX2 antagonists” (GlaxoSmithKline Intellectual Property Development Limited, priority 2020, dated 2024).

The term pIC50 denotes −log10 of the IC50, conventionally taken in molar units. A high value points to a low IC50.

pIC50: −log10 of the molar value.

This experiment has as its target T1, human MRGPRX2 (Homo sapiens, UniProt Q96LB1).
T1 sequence (Q96LB1 1-330): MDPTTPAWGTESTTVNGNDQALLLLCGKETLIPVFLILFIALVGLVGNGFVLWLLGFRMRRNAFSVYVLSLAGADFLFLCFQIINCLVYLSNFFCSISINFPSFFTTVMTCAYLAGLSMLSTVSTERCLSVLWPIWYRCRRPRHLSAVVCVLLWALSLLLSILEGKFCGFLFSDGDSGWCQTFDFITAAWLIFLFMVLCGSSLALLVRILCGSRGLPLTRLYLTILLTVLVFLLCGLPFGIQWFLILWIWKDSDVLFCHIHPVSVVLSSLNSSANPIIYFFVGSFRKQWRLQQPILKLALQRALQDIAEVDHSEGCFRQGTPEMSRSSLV
Nature of the experiment: Ca2+ mobilization assay (FLIPR TETRA): inhibition of Cortistatin-14 mediated MRGPRX2 activation. For orientation: Calcium assays in cells follow changes in intracellular calcium, usually with a dye or a luminescent sensor.
Consider `CC(=O)NCc1cc([C@H]2CN([C@@H](C)C(=O)Nc3ccc(Oc4ccc(F)cc4)cn3)CCC2(F)F)c[nH]c1=O` (single isomer, unassigned) [Example 245], for which the negative logarithm of the IC50 (pIC50) is at least 8.00.
The figure for `C[C@@H](C(=O)Nc1cnc(Oc2ccc(F)cc2)cn1)N1CCC(F)(F)[C@@H](c2c[nH]c(=O)c(CS(C)(=O)=O)c2)C1` [Example 215, (S)-2-((S)-4,4-difluoro-3-(5-((methylsulfonyl)methyl)-6-oxo-1,6-dihydropyridin-3-yl)piperidin-1-yl)-N-(5-(4-fluorophenoxy)pyrazin-2-yl)propanamide] is 7.00 to 8.00; for `C[C@@H](C(=O)Nc1ccc(F)cn1)N1CCC(F)(F)C(c2cc(N)c(=O)n(CC(F)(F)F)c2)C1` (stereo partly drawn) [Example 187, (2S)-2-(3-(5-amino-6-oxo-1-(2,2,2-trifluoroethyl)-1,6-dihydropyridin-3-yl)-4,4-difluoropiperidin-1-yl)-N-(5-fluoropyridin-2-yl)propanamide] it is 4.50 to 5.50.
`CC(C(=O)Nc1cnc(Oc2ccc(F)cc2)cn1)C1CCC[C@@H](c2ccc(=O)[nH]c2)C1` (stereo partly drawn) [Example 284, N-(5-(4-fluorophenoxy)pyrazin-2-yl)-2-((3R)-3-(6-oxo-1,6-dihydropyridin-3-yl)cyclohexyl)propanamide] gave a negative-log IC50 (pIC50) of 7.00 to 8.00.
`C[C@@H](C(=O)Nc1ccc(CC2CCC2)cn1)N1CCC(F)(F)[C@@H](c2ccc(=O)[nH]c2)C1` [Example 84, (S)-N-(5-(cyclobutyl-methyl)pyridin-2-yl)-2-((S)-4,4-difluoro-3-(6-oxo-1,6-dihydropyridin-3-yl)piperidin-1-yl)propanamide]: the pIC50 is 7.00 to 8.00.
`COCCNCc1cc(C2CN(C(C)C(=O)Nc3ccc(Oc4ccc(F)cc4)cn3)CCC2(F)F)c[nH]c1=O` (centres unmarked) [Example 239, 2-(4,4-difluoro-3-(5-(((2-methoxyethyl)amino)methyl)-6-oxo-1,6-dihydropyridin-3-yl)piperidin-1-yl)-N-(5-(4-fluorophenoxy)pyridin-2-yl)propanamide] had a pIC50 of at least 8.00.
In turn, `C[C@@H](C(=O)Nc1ccc(F)cn1)N1CCC(F)(F)C(c2c[nH]c(=O)c(C(N)C(F)(F)F)c2)C1` (stereo partly drawn) [Example 232, (2S)-2-(3-(5-(1-amino-2,2,2-trifluoroethyl)-6-oxo-1,6-dihydropyridin-3-yl)-4,4-difluoropiperidin-1-yl)-N-(5-fluoropyridin-2-yl)propanamide] showed a pIC50 of 5.50 to 7.00.
`C[C@@H](C(=O)Nc1ccc(C2CC2)cn1)N1CCC(F)(F)[C@@H](c2ccc(=O)[nH]c2)C1` [Example 15, (S)-N-(5-cyclopropyl-pyridin-2-yl)-2-((S)-4,4-difluoro-3-(6-oxo-1,6-dihydropyridin-3-yl)piperidin-1-yl)propanaraide] had a pIC50 of 7.00 to 8.00.
Take `C[C@@H](C(=O)Nc1ncc(OCC2CC2)cn1)N1CCC(F)(F)[C@@H](c2ccc(=O)[nH]c2)C1` [Example 35, (S)-N-(5-(cyclopropyl-methoxy)pyrimidin-2-yl)-2-((S)-4,4-difluoro-3-(6-oxo-1,6-dihydropyridin-3-yl)piperidin-1-yl)propanamide]: the pIC50 is 5.50 to 7.00.
With `CCn1cc(C2CN([C@@H](C)C(=O)Nc3ccc(F)cn3)CCC2(F)F)ccc1=O` (stereo partly drawn) [Example 188, (2S)-2-(3-(1-ethyl-6-oxo-1,6-dihydropyridin-3-yl)-4,4-difluoropiperidin-1-yl)-N-(5-fluoropyridin-2-yl)propanamide], the pIC50 was 5.50 to 7.00.
Turning to `C[C@@H](C(=O)Nc1ccc(Oc2ncc(F)cc2F)cn1)N1CCC(F)(F)[C@@H](c2ccc(=O)[nH]c2)C1` [Example 66, (S)-2-((S)-4,4-difluoro-3-(6-oxo-1,6-dihydropyridin-3-yl)piperidin-1-yl)-N-(5-((3,5-difluoropyridin-2-yl)oxy)pyridin-2-yl)propanamide], the pIC50 is at least 8.00.
The figure for `CC(C(=O)Nc1cc(F)c(F)cn1)N1CCC(F)(F)[C@@H](c2ccc(=O)[nH]c2)C1` (stereo partly drawn) [Example 39, 2-((S)-4,4-difluoro-3-(6-oxo-1,6-dihydropyridin-3-yl)piperidin-1-yl)-N-(4,5-difluoropyridin-2-yl)propanamide] is 5.50 to 7.00; for `C[C@@H](C(=O)Nc1ccc(Oc2ncc(F)cc2F)cn1)N1CCC(F)(F)[C@@H](c2c[nH]c(=O)c(CN3CCOCC3)c2)C1` [Example 228, (S)-2-((S)-4,4-difluoro-3-(5-(morpholinomethyl)-6-oxo-1,6-dihydropyridin-3-yl)piperidin-1-yl)-N-(5-((3,5-difluoropyridin-2-yl)oxy)pyridin-2-yl)propanamide] it is 7.00 to 8.00.
In turn, `CC(C(=O)Nc1ccc(F)cn1)N1CCC(F)(F)C(c2c[nH]c(=O)c(C#N)c2)C1` (centres unmarked) [Example 249, 2-(3-(5-cyano-6-oxo-1,6-dihydropyridin-3-yl)-4,4-difluoropiperidin-1-yl)-N-(5-fluoropyridin-2-yl)propanamide] gave a pIC50 of 5.50 to 7.00.
In turn, `CC(C(=O)Nc1cnc(Oc2ccc(F)cc2)cn1)N1CCC(F)(F)C(c2c[nH]c(=O)c(C#N)c2)C1` (centres unmarked) [Example 250, 2-(3-(5-cyano-6-oxo-1,6-dihydropyridin-3-yl)-4,4-difluoropiperidin-1-yl)-N-(5-(4-fluorophenoxy)pyrazin-2-yl)propanamide] gave a pIC50 of 5.50 to 7.00.
Take `CC(C(=O)Nc1ccc(Oc2ccc(F)cc2)nn1)N1CCC(F)(F)[C@@H](c2ccc(=O)[nH]c2)C1` (stereo partly drawn) [Example 63, 2-((S)-4,4-difluoro-3-(6-oxo-1,6-dihydropyridin-3-yl)piperidin-1-yl)-N-(6-(4-fluorophenoxy)pyridazin-3-yl)propanamide]: the pIC50 was 5.50 to 7.00.
Turning to `CC(C(=O)Nc1ccc(F)cn1)N1CCC(F)(F)C(c2c[nH]c(=O)c(CS(C)(=O)=O)c2)C1` (centres unmarked) [Example 213, 2-(4,4-difluoro-3-(5-((methylsulfonyl)methyl)-6-oxo-1,6-dihydropyridin-3-yl)piperidin-1-yl)-N-(5-fluoropyridin-2-yl)propanamide], the pIC50 was 5.50 to 7.00.
Regarding `CC(C(=O)Nc1ccc(Oc2ccccc2)cn1)N1CCC(F)(F)C(c2c[nH]c(=O)c(N)c2)C1` (centres unmarked) [Example 139, 2-(3-(5-amino-6-oxo-1,6-dihydropyridin-3-yl)-4,4-difluoropiperidin-1-yl)-N-(5-phenoxypyridin-2-yl)propanamide], the negative logarithm of the IC50 (pIC50) was 7.00 to 8.00.
The figure for `C[C@@H](C(=O)Nc1ccc(OC2CCC2)nn1)N1CCC(F)(F)[C@@H](c2ccc(=O)[nH]c2)C1` [Example 100, (S)-N-(6-cyclobutoxy-pyridazin-3-yl)-2-((S)-4,4-difluoro-3-(6-oxo-1,6-dihydropyridin-3-yl)piperidin-1-yl)propanamide] is 5.50 to 7.00; for `C[C@@H](C(=O)Nc1ccc(OCC2CC2)nn1)N1CCC(F)(F)[C@@H](c2ccc(=O)[nH]n2)C1` [Example 146, (S)-N-(6-(cyclopropylmethoxy)pyridazin-3-yl)-2-((R)-4,4-difluoro-3-(6-oxo-1,6-dihydropyridazin-3-yl)piperidin-1-yl)propanamide] it is 7.00 to 8.00; for `C[C@@H](C(=O)Nc1ccc(OCC2CC2)nn1)N1CCC(F)(F)[C@@H](c2c[nH]c(=O)cn2)C1` [Example 134, (S)-N-(6-(cyclopropylmethoxy)pyridazin-3-yl)-2-((R)-4,4-difluoro-3-(5-oxo-4,5-dihydropyrazin-2-yl)piperidin-1-yl)propanamide] it is 7.00 to 8.00.
Compound `COc1ccc(NC(=O)C(C)N2CCC(F)(F)[C@@H](c3ccc(=O)[nH]c3)C2)nc1` (stereo partly drawn) [Example 44, 2-((S)-4,4-difluoro-3-(6-oxo-1,6-dihydropyridin-3-yl)piperidin-1-yl)-N-(5-methoxypyridin-2-yl)propanamide] showed a pIC50 of 4.50 to 5.50.
Compound `C[C@@H](C(=O)Nc1ccc(OCC2CC2)nn1)N1CCC(F)(F)[C@@H](c2c[nH]c(=O)c(CN)c2)C1` [Example 203, (S)-2-((S)-3-(5-(aminomethyl)-6-oxo-1,6-dihydropyridin-3-yl)-4,4-difluoropiperidin-1-yl)-N-(6-(cyclopropylmethoxy)pyridazin-3-yl)propanamide] showed a pIC50 of 7.00 to 8.00.
Turning to `C[C@@H](C(=O)Nc1ccc(C(F)(F)c2ccc(F)cc2)cn1)N1CCC(F)(F)[C@@H](c2cc[n+]([O-])cc2)C1` [Example 127, 4-((S)-1-((S)-1-((5-(difluoro(4-fluorophenyl)methyl)pyridin-2-yl)amino)-1-oxopropan-2-yl)-4,4-difluoropiperidin-3-yl)pyridine 1-oxide], the negative-log IC50 (pIC50) is 7.00 to 8.00.
The compound `CC(C(=O)Nc1ccc(OC2CC3(CCC3)C2)cn1)N1CCC(F)(F)[C@@H](c2ccc(=O)[nH]c2)C1` (stereo partly drawn) [Example 73, 2-((S)-4,4-difluoro-3-(6-oxo-1,6-dihydropyridin-3-yl)piperidin-1-yl)-N-(5-(spiro[3.3]heptan-2-yloxy)pyridin-2-yl)propanamide] gave a pIC50 of 5.50 to 7.00.
Take `C[C@@H](C(=O)Nc1ccc(Oc2ccc(Cl)cn2)cn1)N1CCC(F)(F)[C@@H](c2ccc(=O)[nH]c2)C1` [Example 88, (S)-N-(5-((5-chloropyridin-2-yl)oxy)pyridin-2-yl)-2-((S)-4,4-difluoro-3-(6-oxo-1,6-dihydropyridin-3-yl)piperidin-1-yl)propanamide]: the pIC50 is 7.00 to 8.00.
In turn, `C[C@@H](C(=O)Nc1ccc(Cl)cn1)N1CCC[C@@H](c2c[nH]c(=O)c(N)c2)C1` [Example 170] had a pIC50 of 5.50 to 7.00.
Compound `C[C@@H](C(=O)Nc1ccc(Oc2ccccc2)cn1)N1CCC(F)(F)[C@@H](c2ccc(=O)[nH]c2)C1` [Example 6, (S)-2-((S)-4,4-difluoro-3-(6-oxo-1,6-dihydropyridin-3-yl)piperidin-1-yl)-N-(5-phenoxypyridin-2-yl)propanamide] showed a pIC50 of at least 8.00.
`C[C@@H](C(=O)Nc1cnc(Oc2ccc(F)cc2CO)cn1)N1CCC(F)(F)[C@@H](c2ccc(=O)[nH]c2)C1` [Example 272] showed a negative-log IC50 (pIC50) of 7.00 to 8.00.
